Our source for the IC50 and Ki values is ChEMBL document CHEMBL1909046, “DrugMatrix in vitro pharmacology data”.

Chain of Acetylcholinesterase (P22303 whole entry): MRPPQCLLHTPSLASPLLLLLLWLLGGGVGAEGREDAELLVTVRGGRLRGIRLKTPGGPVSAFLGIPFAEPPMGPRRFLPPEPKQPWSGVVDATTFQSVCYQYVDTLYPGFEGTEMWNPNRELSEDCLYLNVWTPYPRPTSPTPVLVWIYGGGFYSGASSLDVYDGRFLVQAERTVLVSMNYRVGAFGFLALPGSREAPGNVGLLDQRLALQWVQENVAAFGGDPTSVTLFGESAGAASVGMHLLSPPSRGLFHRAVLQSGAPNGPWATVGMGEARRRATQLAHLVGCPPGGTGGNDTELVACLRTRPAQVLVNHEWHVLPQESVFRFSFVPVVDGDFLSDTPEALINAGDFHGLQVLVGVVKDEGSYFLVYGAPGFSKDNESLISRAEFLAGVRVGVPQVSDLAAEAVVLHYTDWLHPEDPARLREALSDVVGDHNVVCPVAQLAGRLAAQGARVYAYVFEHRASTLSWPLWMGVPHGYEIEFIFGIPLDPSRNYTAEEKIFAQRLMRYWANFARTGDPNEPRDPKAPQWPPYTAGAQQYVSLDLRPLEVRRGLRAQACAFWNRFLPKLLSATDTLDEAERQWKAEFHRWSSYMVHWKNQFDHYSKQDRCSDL
Chain of Sodium-dependent noradrenaline transporter (P23975 whole entry): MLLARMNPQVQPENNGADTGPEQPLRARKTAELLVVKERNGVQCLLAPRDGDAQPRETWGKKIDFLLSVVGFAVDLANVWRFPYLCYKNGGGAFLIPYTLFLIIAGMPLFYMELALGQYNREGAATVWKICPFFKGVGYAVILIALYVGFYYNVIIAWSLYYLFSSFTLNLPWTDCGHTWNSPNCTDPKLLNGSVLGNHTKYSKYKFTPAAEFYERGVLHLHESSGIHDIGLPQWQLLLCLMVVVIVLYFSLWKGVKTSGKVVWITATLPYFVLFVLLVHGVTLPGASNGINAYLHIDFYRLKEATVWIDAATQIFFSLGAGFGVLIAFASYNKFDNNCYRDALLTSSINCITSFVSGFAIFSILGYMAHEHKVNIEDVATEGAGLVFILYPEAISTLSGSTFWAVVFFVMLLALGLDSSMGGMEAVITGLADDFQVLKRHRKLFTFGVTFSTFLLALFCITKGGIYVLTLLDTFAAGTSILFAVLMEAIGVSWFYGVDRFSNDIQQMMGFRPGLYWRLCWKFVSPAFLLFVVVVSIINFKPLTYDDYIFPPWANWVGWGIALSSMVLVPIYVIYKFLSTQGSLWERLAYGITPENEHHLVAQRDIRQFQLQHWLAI

The first experiment has as its target T1, Alpha-2C adrenergic receptor (Homo sapiens, UniProt P18825).
T1 sequence (P18825 whole entry): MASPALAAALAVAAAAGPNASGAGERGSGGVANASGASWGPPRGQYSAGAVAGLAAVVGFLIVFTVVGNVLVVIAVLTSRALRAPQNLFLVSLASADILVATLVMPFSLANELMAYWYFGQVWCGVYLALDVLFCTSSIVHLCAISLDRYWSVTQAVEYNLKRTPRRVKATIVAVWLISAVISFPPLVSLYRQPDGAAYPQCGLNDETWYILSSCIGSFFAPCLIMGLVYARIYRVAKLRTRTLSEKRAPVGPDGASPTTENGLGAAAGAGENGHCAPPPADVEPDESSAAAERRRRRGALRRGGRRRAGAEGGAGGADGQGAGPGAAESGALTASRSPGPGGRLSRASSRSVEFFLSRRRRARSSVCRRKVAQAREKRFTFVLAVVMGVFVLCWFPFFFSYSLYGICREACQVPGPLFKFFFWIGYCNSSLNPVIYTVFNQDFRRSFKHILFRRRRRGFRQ
In words: DRUGMATRIX: Adrenergic Alpha-2C radioligand binding (ligand: [3H] MK-912). It counts as cell membranes, Sf9, Membrane. As to conditions: sf9.
What is called IC50 is the point on the concentration scale where inhibition reaches its midpoint. For the compound `CC(C)Cc1ccc(C(C)C(=O)O)cc1` (stereo unspecified) [IBUPROFEN], the IC50 result is given as “Not Active”.
For `COc1ccc2c(c1)c(CC(=O)O)c(C)n2C(=O)c1ccc(Cl)cc1` [INDOMETHACIN], the IC50 result is “Not Active”.
Regarding `CC(C(=O)O)c1cccc(C(=O)c2ccccc2)c1` (stereo unspecified) [KETOPROFEN], the IC50 result was “Not Active”.
Consider `Nc1ccn([C@@H]2CS[C@H](CO)O2)c(=O)n1` [LAMIVUDINE], for which the IC50 result is recorded as “Not Active”.
`O=S(=O)([O-])CCS.[Na+]` [MESNA]: the IC50 result is listed as “Not Active”.
On the same count and under the same terms, the result for `C#C[C@]1(O)CC[C@H]2[C@@H]3CCc4cc(OC)ccc4[C@H]3CC[C@@]21C` [MESTRANOL] reads “Not Active”; that for `CC(=O)Nc1cccc(O)c1` [METACETAMOL], “Not Active”.
On to `Cc1ncc([N+](=O)[O-])n1CCO` [METRONIDAZOLE], for which the IC50 result is listed as “Not Active”.
On the same count and under the same terms, the result for `CC(C)(C(=O)c1cccnc1)c1cccnc1` [METYRAPONE] reads “Not Active”.

The next experiment addresses Sodium-dependent noradrenaline transporter (Homo sapiens, UniProt P23975). In words: DRUGMATRIX: Norepinephrine Transporter radioligand binding (ligand: [125I] RTI-55). It counts as cell membranes, MDCK, Membrane. As to conditions: Not Active = under 50% inhibition at 10 µM; read-out: IC50.
Take `C#C[C@]1(O)CC[C@H]2[C@@H]3CCc4cc(OC)ccc4[C@H]3CC[C@@]21C` [MESTRANOL]: the IC50 stood at 1380 nM.

Staying with this experiment, now noted: Not Active = under 50% inhibition at 10 µM; read-out: Ki.
As usually defined, the Ki is a measure of affinity in units of concentration, obtained from inhibition or displacement. With `C#C[C@]1(O)CC[C@H]2[C@@H]3CCc4cc(OC)ccc4[C@H]3CC[C@@]21C` [MESTRANOL], the Ki stood at 1370 nM.

The same experiment, now with this note: mdck; Not Active = under 50% inhibition at 10 µM.
As to `CC(C)Cc1ccc(C(C)C(=O)O)cc1` (stereo unspecified) [IBUPROFEN], the IC50 entry is listed as “Not Active”.
With `COc1ccc2c(c1)c(CC(=O)O)c(C)n2C(=O)c1ccc(Cl)cc1` [INDOMETHACIN], the 50% inhibitory concentration (IC50) result is listed as “Not Active”.
Consider `CC(C(=O)O)c1cccc(C(=O)c2ccccc2)c1` (stereo unspecified) [KETOPROFEN], for which the IC50 result is “Not Active”.
Regarding `Nc1ccn([C@@H]2CS[C@H](CO)O2)c(=O)n1` [LAMIVUDINE], the IC50 result is listed as “Not Active”.
As to `O=S(=O)([O-])CCS.[Na+]` [MESNA], the IC50 entry is on record as “Not Active”.
For the compound `CC(=O)Nc1cccc(O)c1` [METACETAMOL], the IC50 entry is “Not Active”.
Regarding `Cc1ncc([N+](=O)[O-])n1CCO` [METRONIDAZOLE], the IC50 result is recorded as “Not Active”.
Take `CC(C)(C(=O)c1cccnc1)c1cccnc1` [METYRAPONE]: the IC50 entry is “Not Active”.

Test system in a further experiment: not listed separately
In words: DRUGMATRIX: GABAA, Muscimol, Central radioligand binding (ligand: [3H] Muscimol). The class given is cell membranes, Rattus norvegicus, Wistar, Brain, Membrane. The settings on record: Not Active = under 50% inhibition at 10 µM.
As to `CC(C)Cc1ccc(C(C)C(=O)O)cc1` (stereo unspecified) [IBUPROFEN], the IC50 result is given as “Not Active” and the Ki result is recorded as “Not Active”.
Take `COc1ccc2c(c1)c(CC(=O)O)c(C)n2C(=O)c1ccc(Cl)cc1` [INDOMETHACIN]: the IC50 entry is “Not Active” and the Ki result was “Not Active”.
For `CC(C(=O)O)c1cccc(C(=O)c2ccccc2)c1` (stereo unspecified) [KETOPROFEN], the IC50 result is “Not Active” and the Ki result is “Not Active”.
With `Nc1ccn([C@@H]2CS[C@H](CO)O2)c(=O)n1` [LAMIVUDINE], the 50% inhibitory concentration (IC50) result is reported as “Not Active” and the Ki entry is given as “Not Active”.
As to `O=S(=O)([O-])CCS.[Na+]` [MESNA], the IC50 result is on record as “Not Active” and the Ki result was “Not Active”.
As for `C#C[C@]1(O)CC[C@H]2[C@@H]3CCc4cc(OC)ccc4[C@H]3CC[C@@]21C` [MESTRANOL], the IC50 entry is “Not Active” and the inhibitory constant (Ki) entry is listed as “Not Active”.
`CC(=O)Nc1cccc(O)c1` [METACETAMOL]: the IC50 entry is given as “Not Active” and the inhibitory constant (Ki) entry is listed as “Not Active”.
For `Cc1ncc([N+](=O)[O-])n1CCO` [METRONIDAZOLE], the IC50 result is reported as “Not Active” and the inhibition constant Ki entry is “Not Active”.
In the case of `CC(C)(C(=O)c1cccnc1)c1cccnc1` [METYRAPONE], the IC50 result is recorded as “Not Active” and the Ki entry is “Not Active”.

Test system in another experiment: not listed separately
In words: DRUGMATRIX: Glutamate, NMDA, Agonism radioligand binding (ligand: [3H] CGP-39653). The class given is cell membranes, Rattus norvegicus, Wistar, Cerebral cortex, Membrane. As to conditions: Not Active = under 50% inhibition at 10 µM.
As for `CC(C)Cc1ccc(C(C)C(=O)O)cc1` (stereo unspecified) [IBUPROFEN], the IC50 entry is listed as “Not Active” and the Ki entry was “Not Active”.
For the compound `COc1ccc2c(c1)c(CC(=O)O)c(C)n2C(=O)c1ccc(Cl)cc1` [INDOMETHACIN], the IC50 entry is listed as “Not Active” and the Ki entry was “Not Active”.
Take `CC(C(=O)O)c1cccc(C(=O)c2ccccc2)c1` (stereo unspecified) [KETOPROFEN]: the half-inhibitory concentration (IC50) result is “Not Active” and the Ki result is recorded as “Not Active”.
Regarding `Nc1ccn([C@@H]2CS[C@H](CO)O2)c(=O)n1` [LAMIVUDINE], the IC50 entry is recorded as “Not Active” and the Ki entry is on record as “Not Active”.
Consider `O=S(=O)([O-])CCS.[Na+]` [MESNA], for which the IC50 result is recorded as “Not Active” and the Ki entry is listed as “Not Active”.
Regarding `C#C[C@]1(O)CC[C@H]2[C@@H]3CCc4cc(OC)ccc4[C@H]3CC[C@@]21C` [MESTRANOL], the IC50 result is listed as “Not Active” and the inhibitory constant (Ki) result is on record as “Not Active”.
Consider `CC(=O)Nc1cccc(O)c1` [METACETAMOL], for which the IC50 result was “Not Active” and the Ki result is “Not Active”.
In the case of `Cc1ncc([N+](=O)[O-])n1CCO` [METRONIDAZOLE], the IC50 entry was “Not Active” and the Ki entry was “Not Active”.
As for `CC(C)(C(=O)c1cccnc1)c1cccnc1` [METYRAPONE], the IC50 result is given as “Not Active” and the inhibition constant (Ki) entry was “Not Active”.

Test system in another experiment: not listed separately
In words: DRUGMATRIX: Interleukin IL-1 radioligand binding (ligand: [125I] interleukin 1beta). As to conditions: nih3t3; Not Active = under 50% inhibition at 10 µM. The class given is cell membranes, Membrane.
Take `CC(C)Cc1ccc(C(C)C(=O)O)cc1` (stereo unspecified) [IBUPROFEN]: the IC50 entry is “Not Active” and the Ki entry is on record as “Not Active”.
`COc1ccc2c(c1)c(CC(=O)O)c(C)n2C(=O)c1ccc(Cl)cc1` [INDOMETHACIN]: the IC50 entry is “Not Active” and the Ki entry is on record as “Not Active”.
`CC(C(=O)O)c1cccc(C(=O)c2ccccc2)c1` (stereo unspecified) [KETOPROFEN]: the IC50 result is “Not Active” and the Ki entry was “Not Active”.
For `Nc1ccn([C@@H]2CS[C@H](CO)O2)c(=O)n1` [LAMIVUDINE], the IC50 result was “Not Active” and the Ki result was “Not Active”.
As to `O=S(=O)([O-])CCS.[Na+]` [MESNA], the half-inhibitory concentration (IC50) result was “Not Active” and the Ki result was “Not Active”.
In the case of `C#C[C@]1(O)CC[C@H]2[C@@H]3CCc4cc(OC)ccc4[C@H]3CC[C@@]21C` [MESTRANOL], the IC50 result is given as “Not Active” and the Ki entry is “Not Active”.
Take `CC(=O)Nc1cccc(O)c1` [METACETAMOL]: the IC50 result was “Not Active” and the inhibitory constant (Ki) result is on record as “Not Active”.
With `Cc1ncc([N+](=O)[O-])n1CCO` [METRONIDAZOLE], the IC50 result is “Not Active” and the Ki entry was “Not Active”.
For `CC(C)(C(=O)c1cccnc1)c1cccnc1` [METYRAPONE], the IC50 result is on record as “Not Active” and the inhibition constant (Ki) result is on record as “Not Active”.

Another experiment concerns the target Protein phosphatase 3 catalytic subunit alpha (Homo sapiens, UniProt Q08209). Set-up: species or system Escherichia coli.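 Note: inhibition of calcineurin (PP2B) enzyme activity, measured with DiFMUP as the substrate; in other assays of this panel Not Active means under 50% inhibition at 10 µM.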
Conditions: not given
For `CC(C)Cc1ccc(C(C)C(=O)O)cc1` (stereo unspecified) [IBUPROFEN], the IC50 entry was “Not Active”.
For `COc1ccc2c(c1)c(CC(=O)O)c(C)n2C(=O)c1ccc(Cl)cc1` [INDOMETHACIN], the concentration for half-maximal inhibition (IC50) entry is on record as “Not Active”.
Consider `CC(C(=O)O)c1cccc(C(=O)c2ccccc2)c1` (stereo unspecified) [KETOPROFEN], for which the 50% inhibitory concentration (IC50) entry is on record as “Not Active”.
`Nc1ccn([C@@H]2CS[C@H](CO)O2)c(=O)n1` [LAMIVUDINE]: the IC50 entry is reported as “Not Active”.
As for `O=S(=O)([O-])CCS.[Na+]` [MESNA], the IC50 result is recorded as “Not Active”.
Consider `C#C[C@]1(O)CC[C@H]2[C@@H]3CCc4cc(OC)ccc4[C@H]3CC[C@@]21C` [MESTRANOL], for which the IC50 result is listed as “Not Active”.
Regarding `CC(=O)Nc1cccc(O)c1` [METACETAMOL], the IC50 result is given as “Not Active”.
For the compound `Cc1ncc([N+](=O)[O-])n1CCO` [METRONIDAZOLE], the IC50 result was “Not Active”.
Still for that read-out and setting: the result for `CC(C)(C(=O)c1cccnc1)c1cccnc1` [METYRAPONE] reads “Not Active”.

The next experiment has as its target Acetylcholinesterase (Homo sapiens, UniProt P22303). In words: DRUGMATRIX: Acetylcholinesterase enzyme inhibition (substrate: acetylthiocholine). It counts as cell-based, HEK293. The settings on record: hek293; Not Active = under 50% inhibition at 10 µM.
Consider `CC(C)Cc1ccc(C(C)C(=O)O)cc1` (stereo unspecified) [IBUPROFEN], for which the IC50 result is “Not Active”.
Same read-out and setting: the result for `COc1ccc2c(c1)c(CC(=O)O)c(C)n2C(=O)c1ccc(Cl)cc1` [INDOMETHACIN] reads “Not Active”.
Turning to `CC(C(=O)O)c1cccc(C(=O)c2ccccc2)c1` (stereo unspecified) [KETOPROFEN], the IC50 result is listed as “Not Active”.
As for `Nc1ccn([C@@H]2CS[C@H](CO)O2)c(=O)n1` [LAMIVUDINE], the IC50 entry is “Not Active”.
Consider `O=S(=O)([O-])CCS.[Na+]` [MESNA], for which the 50% inhibitory concentration (IC50) result was “Not Active”.
On the same count and under the same terms, the value for `C#C[C@]1(O)CC[C@H]2[C@@H]3CCc4cc(OC)ccc4[C@H]3CC[C@@]21C` [MESTRANOL] was “Not Active”.
With `CC(=O)Nc1cccc(O)c1` [METACETAMOL], the IC50 entry is on record as “Not Active”.
Still for that read-out and setting: the result for `Cc1ncc([N+](=O)[O-])n1CCO` [METRONIDAZOLE] reads “Not Active”.
Regarding `CC(C)(C(=O)c1cccnc1)c1cccnc1` [METYRAPONE], the IC50 result is “Not Active”.
